The results in this text go back to patent US20180049996A1, “THERAPEUTIC AGENT FOR CHRONIC RESPIRATORY DISEASE AND COMPOSITION FOR INHIBITING CARDIAC FIBROSIS” (NIPPON HYPOX LABORATORIES INCORPORATED, priority 2015, published 2018).

Assay [1] deals with allergic asthma model of mice caused by ovalbumin sensitization. Put plainly: BAL inflammatory cell numbers, allergic asthma model caused by ovalbumin sensitization. Type of assay: in vivo, BALB/c female mice. The conditions noted are these: HTHQ 20 and 40 mg/kg/day oral, days 18 to 23; day 25; compared to OVA group. The procedure: The efficacy of the hydroquinone derivative represented by the general formula (1) described above of the present invention on asthma was studied using an allergic asthma model of mice caused by ovalbumin sensitization.
(§1) 6 week old BALB/c female mice were purchased and the mice were divided into 5 groups with 5 animals per group shown in Table 3 below after habituation breeding of about 2 weeks.
(§2) The test was conducted on the schedule of sensitization, causing diseases and administration of test materials shown in FIG. 12. “IP” in FIG. 12 refers to ovalbumin sensitization treatment by the intraperitoneal administration of ovalbumin/aluminum hydroxide, and “IH” refers to inhalation exposure treatment of ovalbumin, and “PO” refers to the administration of the test materials. […]
(§3) All mice were euthanized by intraperitoneal injection of pentobarbital (Hanrimu pharmaceutical, South Korea) at 50 mg/kg and the bronchi were excised on day 25 of the test. […] After preparing slide samples from 100 μL of BAL cell fluid using Cytospin (4° C., 1000 rpm×5 min), the cell numbers of inflammatory cells (eosinophils, macrophages, lymphocytes and neutrophils) present in the BAL fluid were counted using a Diff-Quik stain kit.

In a further assay the test system is ovalbumin-specific IgE. Put plainly: Content of ovalbumin-specific IgE in serum, ovalbumin asthma model. The conditions noted are these: HTHQ 20 and 40 mg/kg/day oral; day 25; no significant difference. The format is in vivo, BALB/c female mice. The procedure:
as §1
The test was conducted on the schedule of sensitization, causing diseases and administration of test materials shown in FIG. 12. “IP” in FIG. 12 refers to ovalbumin sensitization treatment by the intraperitoneal administration of ovalbumin/aluminum hydroxide, and “IH” refers to inhalation exposure treatment of ovalbumin, and “PO” refers to the administration of the test materials. Specifically, 200 μL of PBS (pH 7.4) emulsified by the addition of 20 μg ovalbumin and 2 mg aluminum hydroxide as an adjuvant was intraperitoneally administered to all mice in 4 groups except the normal control group (the initial sensitization, day 1 of the test). Then, after 2 weeks (day 14 of the test), the second sensitization treatment was conducted in the same way as the initial sensitization. […]
On day 25 of the test, the total contents of IgE and contents of ovalbumin-specific IgE in serums were measured using blood collected from orbital sinuses of the mice. An ELISA kit for IgE measurement (a product from BioLegend, Inc.) was used for the measurement and the contents were measured at wavelength of 450 nm using a micro plate reader (a product from Bio-Rad Laboratories, Inc.).

A further assay relates to IL-4. Put plainly: IL-4 level in BAL fluid (ELISA), ovalbumin asthma model. The format is in vivo, BALB/c female mice. The conditions noted are these: HTHQ 20 and 40 mg/kg/day oral; compared to OVA group. The procedure:
as §1, §2, §3
The supernatant of the BAL fluid stored was taken out of the super-cryostat and IL-4, IL-5 and IL-13 levels were measured as the pro-inflammatory cytokine contents in the supernatant of the BAL fluid. A quantitative ELISA kit (a product from R&D systems) and a microplate reader (a product from Bio-Rad Laboratories, Inc.) were used for the measurement and the measurement wavelength was 450 nm.

The subject of a further assay is sputum excretion. Kind of assay: Sputum excretion action (phenol red excretion from trachea sections, method of Engler et al.). The format is in vivo, male ICR mice. Particulars: relative to negative control. The procedure:
The hydroquinone derivative of the present invention was orally administered to 8 week old male ICR mice in a single dose, and the sputum excretion action was evaluated according to the method of Engler et al. (Engler H, Szelenyi I, J.Pharmacol. Moth. 11, 151-157, 1984).
Specifically, the test was conducted as follows. The test material was orally administered to the mice in the control group and the test groups, i.e., an aqueous solution of 2% gum arabic was administered to the mice in the negative control group, and 2,3,5-trimethylhydroquinone-1-hexyl ether (HTHQ), the test substance, was orally administered to the mice in the HTHQ-administered groups at 100 mg/kg body weight, 200 mg/kg body weight and 400 mg/kg body weight, respectively. Ambroxol (a product from Sigma-Aldrich) was orally administered to the mice in the ambroxol administered group at 250 mg/kg body weight. Here, ambroxol is a substance having expectoration action and has been selected as a positive control substance. 30 minutes after the oral administration of the test material, saline in which phenol red (a product from Sigma-Aldrich) was dissolved at a concentration of 0.05 g/mL was intraperitoneally administered at 15 mL/kg. Then, 30 minutes after the administration of phenol red, the mice were euthanized by inhalation of carbon dioxide, and the tracheae were extirpated. Given sites of the extirpated tracheae were cut into sections of fixed size to obtain trachea sections. The obtained trachea sections were added to centrifugation tubes, and 1 mL of saline was added there, and the mixture was sonicated using a ultrasonic washing machine for 15 minutes. After the centrifugation of 5 minutes at 10000 rpm, 0.5 mL of a upper layer solution was dispensed to the centrifugation tubes and 0.05 mL of 1 N sodium hydroxide was added to the tubes. After stirring with a vortex mixer, 0.2 mL of a sample was dispensed to a 96 well plate, and absorbance was measured at 546 nm using a micro plate reader (a product from BioTek Instruments, Inc). The amounts of phenol red excreted from the trachea sections of the mice in the control group and test groups were calculated by extrapolating the measured absorbance to the standard curve based on the absorbance of phenol red reference standard ([…], 2.3 and 1.2 ng/mL). The amounts of phenol red excreted from the trachea sections were substituted in the following formula to calculate the sputum excretion ability of the test material. The formula to calculate the sputum excretion ability is as follows: “sputum excretion ability(%)={(A/B)−1}×100” wherein A is the amounts of phenol red of the test material administered groups (an average) and B is the amount of phenol red of the negative control group (an average).

For `CCCCCCOc1cc(C)c(O)c(C)c1C` [HTHQ, 2,3,5-trimethylhydroquinone-1-hexyl ether], the “inflammatory cell numbers in BAL fluid (eosinophils, macrophages, total)” value in assay [1] is listed as “significantly reduced in an HTHQ dose-dependent manner”. In addition, the “amount of ovalbumin-specific IgE in serum” value with ovalbumin-specific IgE was “a declining trend was seen”. The “IL-4 content in BAL fluid” value in the assay on IL-4 was “significantly reduced”. The sputum excretion ability with sputum excretion (HTHQ 100 mg/kg oral single dose) came to 24.6%; in the assay with sputum excretion (HTHQ 200 mg/kg oral single dose, significant increase) it was 30.0%; in the assay on sputum excretion (HTHQ 400 mg/kg oral single dose, significant increase), 36.2%.
